Test results from publication PMC11502347 (Frontiers in Microbiology, 2024).
pIC50: −log10 of the molar value. ≈ marks a conversion by molar mass, not a printed value.

How the values were obtained:
[1] = tested on: intramacrophagic Mtb; set-up: method as in Matsumoto et al. (2006); conditions: at a concentration of 1 μg/mL; experimental conditions not identical; ref Matsumoto et al. (2006); cited from earlier work
[2] = tested on: Mtb CF 105 (MDR); type: cell-based, Mycobacterium tuberculosis; conditions: MDR clinical isolate; REMA, 7 days
[3] = tested on: Mtb CF 81 (Pre-XDR); type: cell-based, Mycobacterium tuberculosis; conditions: Pre-XDR clinical isolate; REMA, 7 days
[4] = tested on: Mtb H37Rv; experiment: microbe, parasite or virus in culture; type: cell-based, Mycobacterium tuberculosis; conditions: for CIM90 Mtb H37Rv: Sensitive strain, REMA, 7 days; for MIC90: Mycobacterium tuberculosis, H37RV, Table 3
[5] = tested on: M. bovis; type: cell-based, Mycobacterium bovis; conditions: Sensitive; REMA, 7 days
[6] = tested on: M. smegmatis; type: cell-based, Mycobacterium smegmatis; conditions: Sensitive; REMA, 2 days
[7] = tested on: Mtb CF 48 (MDR); type: cell-based, Mycobacterium tuberculosis; conditions: MDR clinical isolate; REMA, 7 days
[8] = tested on: Mtb CF 162 (MDR); type: cell-based, Mycobacterium tuberculosis; conditions: MDR clinical isolate; REMA, 7 days
[9] = tested on: Mtb CF 171 (MDR); type: cell-based, Mycobacterium tuberculosis; conditions: MDR clinical isolate; REMA, 7 days
[10] = tested on: Mtb CF 169 (Pre-XDR); type: cell-based, Mycobacterium tuberculosis; conditions: Pre-XDR clinical isolate; REMA, 7 days
[11] = tested on: Mtb CF 61 (MDR); type: cell-based, Mycobacterium tuberculosis; conditions: MDR clinical isolate; REMA, 7 days
[12] = tested on: Mtb CF 165 (MDR); type: cell-based, Mycobacterium tuberculosis; conditions: MDR clinical isolate; REMA, 7 days
[13] = tested on: Enterococcus faecalis ATCC 29212; experiment: microbe, parasite or virus in culture; type: cell-based; conditions: ATCC29212
[14] = tested on: Enterococcus faecium NCTC 7171 T; experiment: microbe, parasite or virus in culture; type: cell-based; conditions: NCTC7171
[15] = tested on: MRC-5 fibroblasts; experiment: cells; type: cell-based; conditions: Homo sapiens, MRC5; cytotoxicity, resazurin; exposure 24 and 72 h, which one not given
[16] = tested on: Enterobacter cloacae subsp. cloacae ATCC 13883 T; experiment: microbe, parasite or virus in culture; type: cell-based; conditions: ATCC13883
[17] = tested on: Mtb H37Rv; experiment: Checkerboard assay of Bfx with RFP; type: cell-based, Mycobacterium tuberculosis; conditions: for MIC90: Mycobacterium tuberculosis, H37RV, compound alone, Table S1
Protocol: To evaluate the interaction between Bfx and RFP, a checkerboard assay was conducted following the methodology proposed by Berenbaum ([Berenbaum, 1978]).Test compounds were serially diluted in Middlebrook 7H9 broth and arranged in a 96-well plate, starting with 2x MIC for each compound. RFP was also diluted horizontally based on its MIC90. The combinations of different concentrations of Bfx and RFP were incubated with Mtb (5 × 10⁵ CFU/mL) at 37°C and 5% CO₂ for 7 days. Post-incubation, 0.01% resazurin was added, and fluorescence readings were taken after 24 h to determine the Fractional Inhibitory Concentration Index (FICI). The combined effects of the compound combinations were classified according to the Fractional Inhibitory Concentration Index (FICI):
FICI=MICofdrug1incombination/MICofdrug1+MICofdrug2incombination/MICofdrug1

[18] = tested on: Mtb H37Rv; experiment: In vivo infection and treatment, BALB/c mice; conditions: daily oral 4 weeks, 5n 200 mg/kg, RFP 15 mg/kg; for reduction of bacterial load in the lungs: intranasal infection, 5b
[19] = tested on: Citrobacter freundii ATCC 8030 T; experiment: microbe, parasite or virus in culture; type: cell-based; conditions: ATCC8030
[20] = tested on: Murine macrophage J774.A1; experiment: cells; type: cell-based; conditions: Mus musculus, cytotoxicity, resazurin, exposure 24 and 72 h, which one not given
[21] = tested on: Staphylococcus epidermidis ATCC 14990 T; experiment: microbe, parasite or virus in culture; type: cell-based; conditions: ATCC14990
[22] = tested on: Klebsiella oxytoca CCT 0182; experiment: microbe, parasite or virus in culture; type: cell-based; conditions: CCT0182
[23] = tested on: Proteus mirabilis ATCC 29906 T; experiment: microbe, parasite or virus in culture; type: cell-based; conditions: ATCC29906
[24] = tested on: Klebsiella pneumoniae subsp. pneumoniae ATCC 13883 T; experiment: microbe, parasite or virus in culture; type: cell-based; conditions: ATCC13883
[25] = tested on: Staphylococcus saprophyticus subsp. saprophyticus ATCC 15305; experiment: microbe, parasite or virus in culture; type: cell-based; conditions: ATCC15305
[26] = tested on: Enterobacter aerogenes ATCC 13048 T; experiment: microbe, parasite or virus in culture; type: cell-based; conditions: Klebsiella aerogenes, ATCC13048
[27] = tested on: intracellular Mtb H37Rv in J774.A1 macrophages; experiment: Intracellular antimycobacterial activity in infected macrophages; type: cell-based, Mycobacterium tuberculosis; conditions: 10x MIC, 72 h, CFU count
Protocol: Murine macrophage J774.A1 cells (1 × 10^6 cells/mL) were seeded in 24-well plates and incubated as previously described. After 24 h, the supernatant was discarded, and 1 mL of Mtb inoculum (2 × 10^6 CFU/mL) was added to the wells. The plate was incubated for 2 h to facilitate infection. Subsequently, the supernatant was removed, and the cells were washed with PBS. An amikacin solution (200 μg/mL) was added to ensure the sterility of the extracellular environment. After 2 h, the wells were washed, and treatments were applied (1x, 5x, and 10x MIC90 of Bfx or RFP). The cultures were then incubated for 72 h. After incubation, the cells were lysed using a Triton solution, and the supernatant was collected, serially diluted, and plated on Middlebrook 7H11 medium supplemented with 10% OADC. These plates were incubated for 20–30 days until colony-forming units (CFU) were counted ([Solcia et al., 2021]).

[28] = tested on: Gram-negative, Gram-positive bacteria, and fungi, including Candida albicans; experiment: microbe, parasite or virus in culture; type: cell-based; conditions: all the bacterial and fungal strains tested (Table 2), read-out: MIC90 for all species analyzed
[29] = tested on: Candida albicans ATCC 90028; experiment: microbe, parasite or virus in culture; type: cell-based; conditions: ATCC90028, Sabouraud broth, 48 h

| Compound | CIM90 CF 105 [2] | CIM90 CF 81 [3] | CIM90 Mtb H37Rv [4] | CIM90 M. bovis [5] | CIM90 M. smegmatis [6] | CIM90 CF 48 [7] | CIM90 CF 162 [8] | CIM90 CF 171 [9] | CIM90 CF 169 [10] | CIM90 CF 61 [11] | CIM90 CF 165 [12] | MIC90 [13] [µM] | MIC90 [14] [µM] | pIC50 [15] | MIC90 [4] [µM] | MIC90 [16] [µM] | MIC90 [19] [µM] | pIC50 [20] | MIC90 [21] [µM] | MIC90 [22] [µM] | other results |
| --- | --- | --- | --- | --- | --- | --- | --- | --- | --- | --- | --- | --- | --- | --- | --- | --- | --- | --- | --- | --- | --- |
| O=[N+]([O-])c1cn2c(n1)OC[C@@H](OCc1ccc(OC(F)(F)F)cc1)C2 [pretomanid] |  |  |  |  |  |  |  |  |  |  |  |  |  |  |  |  |  |  |  |  | intramacrophagic inhibition [1]: 0.2 log₁₀ CFU/mL |
| NCC[C@H](O)C(=O)N[C@@H]1C[C@H](N)[C@@H](O[C@H]2O[C@H](CN)[C@@H](O)[C@H](O)[C@H]2O)[C@H](O)[C@H]1O[C@H]1O[C@H](CO)[C@@H](O)[C@H](N)[C@H]1O [AMK, amikacin] | 7,54 ± 11,48 μM | 19,52 ± 12,55 μM | 3,0 ± 1,00 μM | 1,5 ± 0,50 μM | 6,0 ± 2,00 μM | 12,27 ± 6,77 μM | > 42,69 μM | 0,24 ± 0,10 μM | 0,36 ± 0,11 μM | > 42,69 μM | 5,33 ± 0,95 μM |  |  |  |  |  |  |  |  |  |  |
| CC(=O)NC[C@H]1CN(c2ccc(N3CCOCC3)c(F)c2)C(=O)O1 [LNZ, linezolid] | 4,15 ± 0,52 μM | 0,47 ± 0,32 μM | 0,5 ± 0,20 μM | 0,25 ± 0,1 μM | 1,0 ± 0,20 μM | 33,88 ± 1,27 μM | 0,41 ± 0,03 μM | 0,58 ± 0,02 μM | 0,95 ± 0,59 μM |  | 0,95 ± 0,01 μM |  |  |  |  |  |  |  |  |  |  |
| C[C@]1(COc2ccc(N3CCC(Oc4ccc(OC(F)(F)F)cc4)CC3)cc2)Cn2cc([N+](=O)[O-])nc2O1 [delamanid] |  |  |  |  |  |  |  |  |  |  |  |  |  |  |  |  |  |  |  |  | intramacrophagic inhibition [1]: 0.7 log₁₀ CFU/mL |
| CO[C@H]1/C=C/O[C@@]2(C)Oc3c(C)c(O)c4c(O)c(c(/C=N/N5CCN(C)CC5)c(O)c4c3C2=O)NC(=O)/C(C)=C\C=C\[C@H](C)[C@H](O)[C@@H](C)[C@@H](O)[C@@H](C)[C@H](OC(C)=O)[C@@H]1C [RFP, rifampicin] | > 30,38 μM | > 30,38 μM | 0,05 ± 0,01 μM | 0,10 ± 0,01 μM | 1,21 ± 0,00 μM | > 30,38 μM | > 30,38 μM | > 30,38 μM | 6,95 ± 0,19 μM | > 30,38 μM | > 30,38 μM | 0.004 (≈ 0.00329 µg/mL) | > 100 | < 3.92 | 0.05 (≈ 0.0411 µg/mL) | > 100 | 38.9 (≈ 32 µg/mL) | < 3.92 | 0.001 (≈ 0.000823 µg/mL) | 7.5 (≈ 6.17 µg/mL) | MIC90 [17]: 0.05 µM; MIC90 combined ([17]; in the combination 5b + RFP): 0,00098 µM; MIC90 combined ([17]; in the combination 5n + RFP): 0,00098 µM; reduction of the pulmonary load ([18]; abstract): 1.23 log10 CFU/mL; reduction of bacterial load in the lungs [18]: 1.23 log10; MIC90 [23]: 19.4 µM (≈ 16 µg/mL); MIC90 [24]: 5.1 µM (≈ 4.2 µg/mL); MIC90 [25]: 0.009 µM (≈ 0.00741 µg/mL); MIC90 [26]: > 100 µM; inhibition of bacterial load within macrophages [27]: 0.7 log10 |
| O=C(Nc1ccc(N2CCSCC2)c(F)c1)c1ccc2no[n+]([O-])c2c1 [Compound 5b] | > 66,78 μM | 0,27 ± 0,00 μM |  |  | 24,17 ± 13,00 μM | 22,76 ± 13,20 μM |  |  | 0,40 ± 0,03 μM | 0,28 ± 0,02 μM |  | > 200 | > 200 | 4.24 | 0.7 (≈ 0.262 µg/mL) | > 200 | > 200 | 4.39 | > 200 | > 200 | MIC90 [28]: > 200 µM; MIC90 [29]: > 200 µM; FICI ([17]; Bfx combined with RFP): 0.11; Results (interaction with RFP) ([17]; Bfx combined with RFP): Synergistic (FICI values less than 0.5 indicate synergy); MIC90 [17]: 0.7 µM; MIC90 combined ([17]; in the combination 5b + RFP): 0,0625 µM; reduction of bacterial load in the lungs [18]: 1.45 log10; MIC90 [23]: > 200 µM; MIC90 [24]: > 200 µM; MIC90 [25]: > 200 µM; MIC90 [26]: > 200 µM; inhibition of bacterial load within macrophages [27]: 2.3 log10 |
| NNC(=O)c1ccncc1 [INH, isoniazid] | > 182,30 μM | > 182,30 μM | 0,95 ± 0,43 μM |  | 2,0 ± 0,50 μM | > 182,30 μM | > 182,30 μM | > 182,30 μM | > 182,30 μM | > 182,30 μM | 71,56 ± 24,71 μM | > 500 | > 500 | < 3.14 | 0.95 (≈ 0.13 µg/mL) | > 500 | > 500 | < 3.14 | > 500 | > 500 | MIC90 [23]: > 500 µM; MIC90 [24]: > 500 µM; MIC90 [25]: > 500 µM; MIC90 [26]: > 500 µM |
